Data as given in patent US20200068887A1, “TREATMENT FOR REMOVING ECTOPARASITES FROM FISH” (priority 2016, published 2020).

Legend:
Type in all cases: in vivo
Lepeophtheirus salmonis = test: Immersion treatment of sea lice challenged salmon with 10, 30 and 50 ppm imidacloprid; conditions: for Abundance (and range) of adult female lice / Abundance (and range) of adult male lice / Abundance (and range) of ovigerous females / Mean abundance (and range) or all lice stages / Prevalence: lice counted week 8
Excerpt: Eight flow-through treatment tanks each containing 15 fish were set up. The fish were Salmon (Salmo salar) having an average weight of approximately 270 g and of mixed sex. Egg strings removed from ovigerous female Lepeophtheirus salmonis were collected and cultured until infective copepodids were produced. Eight bottles containing approximately 330-350 copepodids were each randomly allocated to a treatment tank (to provide an average of 22 lice per fish).
In preparation for the challenge, water flows in the tanks were stopped and light levels reduced. The lice were then added to each tank and the tanks maintained in total darkness for 6 hours after which light levels were raised and the water flow resumed.
The fish were challenged with sea lice for either one week or for six weeks.
One week after the sea lice challenge, fish in three of the tanks were treated with either 10 ppm w/v, 30 ppm w/v or 50 ppm w/v imidacloprid. One of the tanks was treated with 0.03% DMSO and another tank sham treated with sea water as controls.
For each treatment tank, the appropriate amount of imidacloprid (see Table 1) was dissolved in 100 ml of DMSO and mixed with approximately 900 ml of sea water from the experimental tank to obtain a treatment solution. The water flow on the experimental tanks was disabled and the treatment solution was then added.
Fish were exposed for 60 minutes in static water with full aeration and observed during the exposure period. At the end of the exposure period the water was rapidly drained to approximately ⅓ volume, before the flows were resumed in the tanks
Six weeks after the fish were challenged with sea lice, the fish in the three remaining treatment tanks were treated with either 10 ppm w/v, 30 ppm w/v or 50 ppm w/v imidacloprid. The treatment was carried out in the same way as for the treatment tanks one week post challenge (see 1.2.1).
Eight weeks after the fish were challenged with sea lice, the study was terminated. Fish were over anaesthetised in MS222 (tricaine methanesulfonate) and pithed using an Iki Jime tool. The length and weight of each fish and external symptoms were recorded. All lice were removed from each fish and note made of sex and stage of development. The lice were stored in ethanol and sex and stage confirmed using stereo microscope.
The data is expressed as prevalence and abundance. Prevalence is defined as the number of hosts infected with one of more individuals of a parasite species divided by the number of hosts examined (including infected and uninfected hosts) and expressed as a percentage.

Atlantic salmon = test: Fish behaviour/appearance and mortality during bath treatment trial; conditions: 20 ppm to 200 ppm, exposure 3 to 60 minutes
Protocol: Fish behaviour/appearance was assessed in vivo during each test. Any changes in behaviour and/or appearance including mortality were recorded.

fish = test: Safety of imidacloprid treatment on fish
Protocol: The safety of the imidacloprid treatment on fish was assessed. Fish held in a flow through tank containing 271.8 L of sea water were exposed to 65 ppm w/v of the active ingredient imidacloprid. 17.67 g of imidacloprid was dissolved in 100 ml of dimethyl sulfoxide (DMSO) and the solution was added to approximately 900 ml sea water and mixed. The flow on the through tank was disabled and the solution of imidacloprid was added.
The fish were exposed to 65 ppm imidacloprid in static water for 1 hour and observed for behavioural changes at 5-10 minute intervals. The fish were then held for a further 7 days before being terminated.

L. salmonis = test: Field well boat treatment, pre- vs post-treatment sea lice counts; conditions: 20 ppm 60 min on well boat, within 24 hours after treatment, 30 fish per pen; pens A-D
Protocol: The effectiveness of imidacloprid against pre-adult and adult stages of L. salmonis and Caligus sp. infections on farmed Atlantic salmon was investigated by performing pre- and post-treatment sea lice counts on salmon undergoing a treatment with imidacloprid. This trial was conducted at a commercial salmon farm in Norway. The salmon were pumped onto a well boat and were exposed to 20 ppm imidacloprid for 60 minutes. The average weight of the salmon was 3.5 kg and the average number of salmon per pen was 180,000. 30 fish per pen were assessed for L. salmonis and Caligus sp., and the number of each L. salmonis life stage found was recorded. This was performed within 24 hours prior to treatment, and within 24 hours after treatment.
These assessments were made on four pens of salmon in total. Prior to treatment, fish were crowded within the pen to enable them to be pumped into the well boat, which is where the pre-treatment sea lice assessments were conducted. The post-treatment sea lice assessments were made by removing fish from the outflow pipe on the well boat.
At all time points, 3 fish were removed and placed into an anaesthetic bath. This was repeated 10 times until 30 fish had been assessed.
The numbers of sea lice observed per fish for this trial for each of the four tested pens according to sea lice life cycle state, pre- or post-administration of active are presented in Table 5.

[1] = 10 ppm w/v 60 min, treated 1 week post challenge
[2] = 10 ppm w/v 60 min, treated 6 weeks post challenge
[3] = 30 ppm w/v 60 min, treated 1 week post challenge
[4] = 30 ppm w/v 60 min, treated 6 weeks post challenge
[5] = 50 ppm w/v 60 min, treated 1 week post challenge, two fish removed from group
[6] = 50 ppm w/v 60 min, treated 6 weeks post challenge

For `O=[N+]([O-])NC1=NCCN1Cc1ccc(Cl)nc1` [imidacloprid], the “prevalence of infection of all lice stages versus the two control groups” value (Lepeophtheirus salmonis; 10, 30 or 50 ppm w/v, treated one week post challenge, examined week 8) was “not considered to differ”, the “Abundance (and range) of adult female lice” value (Lepeophtheirus salmonis; [1]) was 0.067 (0-1) and the “Abundance (and range) of adult male lice” value (Lepeophtheirus salmonis; [1]) was 0.87 (0-2). For the same compound, the “Abundance (and range) of ovigerous females” value (Lepeophtheirus salmonis; [1]) was 1.47 (0-3), the “Mean abundance (and range) or all lice stages” value (“Mean abundance” for short) (Lepeophtheirus salmonis; [1]) was 2.4 (1-5) and the Prevalence (Lepeophtheirus salmonis; [1]) was 100%. For the same compound, the “Abundance (and range) of adult female lice” value (Lepeophtheirus salmonis; [2]) was 0, the “Abundance (and range) of adult male lice” value (Lepeophtheirus salmonis; [2]) was 0 and the “Abundance (and range) of ovigerous females” value (Lepeophtheirus salmonis; [2]) was 0. For the same compound, the “Mean abundance” value (Lepeophtheirus salmonis; [2]) was 0, the Prevalence (Lepeophtheirus salmonis; [2]) was 0% and the “infected fish (each with a single ovigerous female)” value (Lepeophtheirus salmonis; 10 ppm w/v, 6 weeks post challenge, 54 minutes after addition) was 2 fish. The “lice remaining on fish” value (Lepeophtheirus salmonis; 10 ppm w/v, 6 weeks post challenge, 91 minutes after addition, louse stayed at least five days) was “a single male louse was observed on the head of its host”, the “lice observed in the water column” value (Lepeophtheirus salmonis; 10 ppm w/v, 6 weeks post challenge, first 19 minutes after addition) was “Lice were not observed in the water column” and the “Abundance (and range) of adult female lice” value (Lepeophtheirus salmonis; [3]) was 0 (0-0). The “Abundance (and range) of adult male lice” value (Lepeophtheirus salmonis; [3]) was 0.8 (0-1), the “Abundance (and range) of ovigerous females” value (Lepeophtheirus salmonis; [3]) was 1.4 (0-3) and the “Mean abundance” value (Lepeophtheirus salmonis; [3]) was 2.2 (0-4). The Prevalence (Lepeophtheirus salmonis; [3]) was 93.33%, the “Abundance (and range) of adult female lice” value (Lepeophtheirus salmonis; [4]) was 0 and the “Abundance (and range) of adult male lice” value (Lepeophtheirus salmonis; [4]) was 0. The “Abundance (and range) of ovigerous females” value (Lepeophtheirus salmonis; [4]) was 0, the “Mean abundance” value (Lepeophtheirus salmonis; [4]) was 0 and the Prevalence (Lepeophtheirus salmonis; [4]) was 0%. For the same compound, the “lice on the fish with re-attached lice” value (Lepeophtheirus salmonis; 30 ppm w/v, 6 weeks post challenge, 6 minutes after the 78 minute observation) was “no lice were observed on these fish”, the “lice observed in the water column” value (Lepeophtheirus salmonis; 30 ppm w/v, 6 weeks post challenge, 10 minutes after addition) was 1-2 lice and the “lice present in the water column” value (Lepeophtheirus salmonis; 30 ppm w/v, 6 weeks post challenge, 18 minutes after addition) was “approximately 10 lice”. For the same compound, the “lice noted in the water” value (Lepeophtheirus salmonis; 30 ppm w/v, 6 weeks post challenge, 25 minutes after addition) was “approximately 20 lice”, the “fish appearing infected (estimated 1-2 lice per fish)” value (Lepeophtheirus salmonis; 30 ppm w/v, 6 weeks post challenge, 25 minutes after addition, 15 fish per tank) was “less than 6 fish” and the “infection status of fish” value (Lepeophtheirus salmonis; 30 ppm w/v, 6 weeks post challenge, 33 minutes after addition) was “most fish were considered to be negative for any lice infections”. For the same compound, the “fish appearing infected (each with a single louse)” value (Lepeophtheirus salmonis; 30 ppm w/v, 6 weeks post challenge, 47 minutes after addition) was 3 fish, the “infection status of fish” value (Lepeophtheirus salmonis; 30 ppm w/v, 6 weeks post challenge, 59 minutes after addition) was “no fish were visibly infected with lice” and the “fish with re-attached louse (1 louse each)” value (Lepeophtheirus salmonis; 30 ppm w/v, 6 weeks post challenge, 78 minutes after addition) was 4 fish. For the same compound, the “lesions associated with feeding and attachment of lice” value (Lepeophtheirus salmonis; 30 ppm w/v, two days post-treatment) was “almost completely resolved”, the “Abundance (and range) of adult male lice” value (Lepeophtheirus salmonis; [5]) was 1.23 (0-3) and the “Abundance (and range) of ovigerous females” value (Lepeophtheirus salmonis; [5]) was 1.69 (0-5). The “Abundance (and range) of adult female lice” value (Lepeophtheirus salmonis; [6]) was 0, the “Abundance (and range) of adult male lice” value (Lepeophtheirus salmonis; [6]) was 0 and the “Abundance (and range) of ovigerous females” value (Lepeophtheirus salmonis; [6]) was 0. For the same compound, the “Mean abundance” value (Lepeophtheirus salmonis; [6]) was 0, the Prevalence (Lepeophtheirus salmonis; [6]) was 0% and the “fish noted as infected (each with a single louse)” value (Lepeophtheirus salmonis; 50 ppm w/v, 6 weeks post challenge, 44 minutes after addition, 15 fish per tank) was “five”. For the same compound, the “fish with a single louse infection” value (Lepeophtheirus salmonis; 50 ppm w/v, 6 weeks post challenge, 53 minutes after addition) was 2-3 fish, the “lice remaining on fish” value (Lepeophtheirus salmonis; 50 ppm w/v, 6 weeks post challenge, 58 minutes after addition) was “only one louse was apparent on a single fish” and the “lice remaining on fish” value (Lepeophtheirus salmonis; 50 ppm w/v, 6 weeks post challenge, 81 minutes after addition) was “no lice were visible on the fish”. For the same compound, the “lice detached from the host, free in the water column” value (Lepeophtheirus salmonis; 50 ppm w/v, 6 weeks post challenge, after 12 minutes) was “approximately 10 lice”, the “lice observed in the water column” value (Lepeophtheirus salmonis; 50 ppm w/v, 6 weeks post challenge, after 18 minutes) was “approximately 20 lice” and the “lice observed in the water column” value (Lepeophtheirus salmonis; 50 ppm w/v, 6 weeks post challenge, between 2 and 6 minutes after addition) was “No lice were observed”. For the same compound, the “lesions associated with feeding and attachment of lice” value (Lepeophtheirus salmonis; 50 ppm w/v, two days post treatment) was “almost completely resolved”, the “effectiveness against motile parasitic stages of lice” value (Lepeophtheirus salmonis; all treatment doses (10, 30, 50 ppm w/v), treated six weeks after challenge) was 100% and the “overall lice abundances compared with the DMSO control” value (Lepeophtheirus salmonis; treated one week post challenge) was “No significant differences”. For the same compound, the “fish mortality in the trial” value (Atlantic salmon) was “No fish died in the trial”, the “adverse reactions during monitoring after exposure” value (fish; 65 ppm w/v for 1 hour, monitored a further 7 days) was “no adverse reactions being noted” and the “external pathologies on termination” value (fish; 65 ppm w/v for 1 hour, terminated after 7 days) was “no external pathologies were noted”. For the same compound, the “changes in fish behaviour during the exposure period” value (fish; 65 ppm w/v, static water, 1 hour) was “No observable changes in fish behaviour”, the “sea lice per fish, Adult Female, Post” value (L. salmonis) was 0.0 and the “sea lice per fish, Adult Male, Post” value (L. salmonis) was 0.0. The “sea lice per fish, Gravid Female, Post” value (L. salmonis) was 0.0, the “sea lice per fish, Pre-Adult Female, Post” value (L. salmonis) was 0.0 and the “sea lice per fish, Pre-Adult Male, Post” value (L. salmonis) was 0.0. The “sea lice per fish, Total, Post” value (L. salmonis) was 0.0.
